# Measurements: patent US20240208986A1, “PHENYL AZEPINES AS RIPK1 INHIBITORS AND METHODS OF USE THEREOF” (Merck Sharp & Dohme LLC, priority 2021, published 2024)
# Target: RIPK1 (recombinant GST-RIPK1 kinase domain, residues 1-327) (Homo sapiens (Human), UniProt Q13546)
# Experiment: RIPK1-ADP-Glo Enzymatic Assay
# Assay type: biochemical
# Conditions: 25 nM GST-RIPK1, 300 μM ATP, 3 μM dephosphorylated-MBP; 30 minutes pre-incubation, 150 minutes reaction; ten-point titration
# Procedure, shortened: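 GST-tagged RIPK1 (25 nM) was preincubated 30 min with compound at ambient temperature in HEPES pH 7.3 buffer, then run 150 min with 300 μM ATP and 3 μM dephosphorylated MBP. ADP was read by ADP-Glo luminescence. EC50 came from 10-point, 1:3 titrations (top 100000 nM, 1% DMSO) fitted to a four-parameter model.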
# RIPK1 (recombinant GST-RIPK1 kinase domain, residues 1-327), sequence (Q13546 1-327): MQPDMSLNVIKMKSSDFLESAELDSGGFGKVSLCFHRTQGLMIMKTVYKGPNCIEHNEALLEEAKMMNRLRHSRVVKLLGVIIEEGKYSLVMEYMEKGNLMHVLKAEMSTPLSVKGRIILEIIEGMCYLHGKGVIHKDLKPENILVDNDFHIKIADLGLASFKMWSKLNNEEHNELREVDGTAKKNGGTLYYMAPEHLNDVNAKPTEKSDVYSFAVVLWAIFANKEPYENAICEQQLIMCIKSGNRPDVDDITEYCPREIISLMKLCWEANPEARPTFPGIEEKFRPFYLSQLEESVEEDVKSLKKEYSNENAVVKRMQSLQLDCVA
row,SMILES,IC50 [nM]
1,"CC(F)(F)C(C)(C)C(=O)N1C[C@@H]2C[C@H]1c1ccc(Cl)cc1O2 [Compound 2-16, 1-((2S,5S)-8-chloro-2,3-dihydro-2,5-methanobenzo[f][1,4]oxaze-pin-4(5H)-yl)-3,3-difluoro-2,2-dimethylbutan-1-one]",35
2,"CC(C)(C(=O)N1C[C@@H]2C[C@H]1c1cccc(Cl)c1O2)C(F)F [Compound 2-20, 1-[(2S,5S)-9-chloro-2,3-dihydro-2,5-methano-1,4-benzoxazepin-4(5H)-yl]-3,3-difluoro-2,2-dimethylpropan-1-one]",52
3,"CC(C)(C(=O)N1C[C@@H]2C[C@H]1c1ccc(Cl)cc1O2)C(F)F [Compound 2-21, 1-[(2S,5S)-8-chloro-2,3-dihydro-2,5-methano-1,4-benzoxazepin-4(5H)-yl]-3,3-difluoro-2,2-dimethylpropan-1-one]",37
4,"CC(C)(C(=O)N1C[C@@H]2C[C@H]1c1ccc(C#N)cc1O2)C(F)F [Compound 2-22, (2S,5S)-4-(3,3-difluoro-2,2-dimethylpropanoyl)-2,3,4,5-tetrahydro-2,5-methano-1,4-benzoxazepine-8-carbonitrile]",388
5,"CC(C)(CC#N)C(=O)N1C[C@@H]2C[C@H]1c1ccc(Cl)cc1O2 [Compound 2-23, 4-((2S,5S)-8-chloro-2,3-dihydro-2,5-methanobenzo[f][1,4]oxaze-pin-4(5H)-yl)-3,3-dimethyl-4-oxobutanenitrile]",49
6,"CC(C)(C(=O)N1C[C@@H]2C[C@H]1c1cc(F)cc(Cl)c1O2)C(F)F [Compound 2-24, 1-[(2S,5S)-9-chloro-7-fluoro-2,3-dihydro-2,5-methano-1,4-benzoxazepin-4(5H)-yl]-3,3-difluoro-2,2-dimethylpropan-1-one]",30
7,"N#CCC1(C(=O)N2C[C@@H]3C[C@H]2c2cccc(F)c2O3)CCC1 [Compound 2-28, {1-[(2S,5S)-9-fluoro-2,3-dihydro-2,5-methano-1,4-benzoxazepine-4(5H)-carbonyl]cyclobutyl} acetonitrile]",809
8,"CC1(C(=O)N2C[C@@H]3C[C@H]2c2cc(F)ccc2O3)CC(C#N)C1 (stereo partly drawn) [Compound 2-29, 3-((2S,5S)-7-fluoro-2,3,4,5-tetrahydro-2,5-methanobenzo[f][1,4]oxaze-pine-4-carbonyl)-3-methylcyclobutane-1-carbonitrile]",55
9,"CC1(C(=O)N2C[C@@H]3C[C@H]2c2cccc(F)c2O3)CC(C#N)C1 (stereo partly drawn) [Compound 2-30, 3-((2S,5S)-9-fluoro-2,3,4,5-tetrahydro-2,5-methanobenzo[f][1,4]oxaze-pine-4-carbonyl)-3-methylcyclobutane-1-carbonitrile]",75
10,"C[C@@H]1[C@@H]2C[C@@H](c3ccccc3O2)N1C(=O)C(C)(C)C [Compound 2-31, 2,2-dimethyl-1-((2S,3R,5S)-3-methyl-2,3-dihydro-2,5-methanobenzo[f][1,4]oxaze-pin-4(5H)-yl)propan-1-one]",132
11,"O=C(N1C[C@@H]2C[C@H]1c1cc(Cl)ccc1O2)C12CCC(F)(CC1)C2 [Compound 2-32, ((2S,5S)-7-chloro-2,3-dihydro-2,5-methanobenzo[f][1,4]oxaze-pin-4(5H)-yl)(4-fluorobicyclo[2.2.1]heptan-1-yl)methanone]",39
12,"N#Cc1ccnc(N2CCC(F)(C(=O)N3C[C@@H]4C[C@H]3c3cc(F)cc(F)c3O4)CC2)n1 [Compound 2-34, 2-(4-((2S,5S)-7,9-difluoro-2,3,4,5-tetrahydro-2,5-methanobenzo[f][1,4]oxaze-pine-4-carbonyl)-4-fluoropiperidin-1-yl)pyrimidine-4-carbonitrile]",27
13,"CC(C)(C)C(=O)N1C[C@H]2Cc3ccccc3[C@@H]1C2 [Compound 3-2, 2,2-dimethyl-1-((1S,4S)-1,3,4,5-tetrahydro-2H-1,4-methanobenzo[c]azepin-2-yl)propan-1-one]",2240
14,"CC(C)(CC#N)C(=O)N1C[C@H]2Cc3ccccc3[C@@H]1C2 [Compound 3-3, 3,3-dimethyl-4-oxo-4-((1S,4S)-1,3,4,5-tetrahydro-2H-1,4-methanobenzo[c]azepin-2-yl)butanenitrile]",1490
15,"CC(C)(C)C(=O)N1C[C@]2(C)C[C@H]1c1ccccc1O2 [Compound 3-5, 2,2-dimethyl-1-((2S,5S)-2-methyl-2,3-dihydro-2,5-methanobenzo[f][1,4]oxaze-pin-4(5H)-yl)propan-1-one]",17800
16,"CC(C)(C(=O)N1C[C@]2(C)C[C@H]1c1ccccc1O2)C(F)F [Compound 3-6, 3,3-difluoro-2,2-dimethyl-1-((2S,5S)-2-methyl-2,3-dihydro-2,5-methanobenzo[f][1,4]oxaze-pin-4(5H)-yl)propan-1-one]",14700

# Compounds with a lower IC50, results first:
row,IC50 [nM],SMILES
1,26,"O=C(N1C[C@@H]2C[C@H]1c1ccc(Cl)cc1O2)C12CCC(F)(CC1)C2 [Compound 2-33, ((2S,5S)-8-chloro-2,3-dihydro-2,5-methanobenzo[f][1,4]oxaze-pin-4(5H)-yl)(4-fluorobicyclo[2.2.1]heptan-1-yl)methanone]"
2,24,"O=C(N1C[C@@H]2C[C@H]1c1cccc(F)c1O2)C12CCC(CC1)C2 [Compound 2-15, (bicyclo[2.2.1]heptan-1-yl)[(2S,5S)-9-fluoro-2,3-dihydro-2,5-methano-1,4-benzoxazepin-4(5H)-yl]methanone]"
3,19,"N#CC12CCC(C(=O)N3C[C@@H]4C[C@H]3c3cc(F)cc(F)c3O4)(C1)C2 [Compound 2-36, 4-((2S,5S)-7,9-difluoro-2,3,4,5-tetrahydro-2,5-methanobenzo[f][1,4]oxaze-pine-4-carbonyl)bicyclo[2.1.1] hexane-1-carbonitrile]"
4,18,"CC(C)(C(=O)N1C[C@@H]2C[C@H]1c1cccc(C#N)c1O2)C(F)F [Compound 2-19, (2S,5S)-4-(3,3-difluoro-2,2-dimethylpropanoyl)-2,3,4,5-tetrahydro-2,5-methano-1,4-benzoxazepine-9-carbonitrile]"
5,16,"CC(C)(CC#N)C(=O)N1C[C@@H]2C[C@H]1c1cc(F)cc(F)c1O2 [Compound 2-27, 4-[(2S,5S)-7,9-difluoro-2,3-dihydro-2,5-methano-1,4-benzoxazepin-4(5H)-yl]-3,3-dimethyl-4-oxobutanenitrile]"
6,15,"O=C(N1C[C@@H]2C[C@H]1c1cc(F)ccc1O2)C12CCC(CC1)C2 [Compound 2-14, (bicyclo[2.2.1]heptan-1-yl)[(2S,5S)-7-fluoro-2,3-dihydro-2,5-methano-1,4-benzoxazepin-4(5H)-yl]methanone]"
7,12,"CC(C)(C(=O)N1C[C@@H]2C[C@H]1c1cc(F)cc(F)c1O2)C(F)F [Compound 2-26, 1-[(2S,5S)-7,9-difluoro-2,3-dihydro-2,5-methano-1,4-benzoxazepin-4(5H)-yl]-3,3-difluoro-2,2-dimethylpropan-1-one]"
8,12,"O=C(N1C[C@@H]2C[C@H]1c1cc(F)cc(F)c1O2)C12CCC(F)(CC1)C2 [Compound 2-35, ((2S,5S)-7,9-difluoro-2,3-dihydro-2,5-methanobenzo[f][1,4]oxaze-pin-4(5H)-yl)(4-fluorobicyclo[2.2.1]heptan-1-yl)methanone]"
9,10,"N#Cc1cc(F)cc2c1O[C@H]1C[C@@H]2N(C(=O)C23CCC(F)(CC2)C3)C1 [Compound 2-25, (2S,5S)-7-fluoro-4-(4-fluorobicyclo[2.2.1]heptane-1-carbonyl)-2,3,4,5-tetrahydro-2,5-methano-1,4-benzoxazepine-9-carbonitrile]"
